Test results taken from patent publication US11236047B2 (ASTEX THERAPEUTICS LIMITED, priority 2017, dated 2022).
Read-outs that look alike come from different tables or passages of the source.

Legend:
MDM2-p53 interaction = MDM2-p53 interaction (Homo sapiens (Human), UniProt Q00987); details: for inhibition at 0.03 µM: read-out: MDM2 % inhibition @0.030; for inhibition at 0.001 µM: read-out: MDM2 % inhibition @0.0010; for inhibition at 0.003 µM: read-out: MDM2 % inhibition @0.0030; for inhibition at 0.1 µM: read-out: MDM2 % inhibition @0.10
SN40R2 cells = test: Protocol B: SN40R2 CellTiter-Glo luminescent cell viability assay; details: for inhibition at 10 µM: read-out: SN40R2 % inhibition at 10, Protocol B, SN40R2, at 10 μM; for inhibition at 3 µM: read-out: SN40R2 % inhibition at 3, Protocol B, SN40R2, at 3 μM
SJSA-1 cells = test: Protocol B: SJSA-1 CellTiter-Glo luminescent cell viability assay; details: for inhibition at 10 µM: Homo sapiens, SJSA-1, read-out: SJSA1 % inhibition at 10
[1] = read-out: SJSA1 IC50, Protocol B, SJSA-1
[2] = read-out: SJSA1 IC50 (μM) (Protocol B), SJSA-1, Protocol B

Chain of MDM2-p53 interaction (Q00987 whole entry): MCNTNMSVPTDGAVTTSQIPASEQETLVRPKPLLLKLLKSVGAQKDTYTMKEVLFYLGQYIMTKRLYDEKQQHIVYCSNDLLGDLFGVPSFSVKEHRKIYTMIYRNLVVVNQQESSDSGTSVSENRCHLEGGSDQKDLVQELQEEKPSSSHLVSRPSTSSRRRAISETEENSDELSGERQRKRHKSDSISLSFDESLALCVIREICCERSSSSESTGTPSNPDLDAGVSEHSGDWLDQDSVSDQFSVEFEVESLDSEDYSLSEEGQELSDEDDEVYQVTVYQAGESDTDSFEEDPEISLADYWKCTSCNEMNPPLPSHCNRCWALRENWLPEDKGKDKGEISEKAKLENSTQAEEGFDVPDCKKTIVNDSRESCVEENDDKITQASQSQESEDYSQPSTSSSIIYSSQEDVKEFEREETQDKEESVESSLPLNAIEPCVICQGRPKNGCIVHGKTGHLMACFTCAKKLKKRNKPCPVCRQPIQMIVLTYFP

Compound | inhibition at 0.001 µM (MDM2-p53 interaction) [%] | inhibition at 10 µM (SN40R2 cells) [%] | also measured
Cc1c[nH]c(C(C)(O)c2cc(F)c3c(c2)C(=O)N(Cc2ccc(Cl)cn2)[C@@]3(OCC2(O)CC2)c2ccc(Cl)cc2)n1 (mixture of isomers) [Example 332, (3R)-3-(4-chlorophenyl)-2-[(5-chloropyridin-2-yl)methyl]-4-fluoro-6-[1-hydroxy-1-(4-methyl-1H-imidazol-2-yl)ethyl]-3-[(1-hydroxycyclopropyl)methoxy]-2,3-dihydro-1H-isoindol-1-one] |  | 5 | inhibition at 0.03 µM (MDM2-p53 interaction): 60%
CCC(O)(c1cc(F)c2c(c1)C(=O)N(Cc1ncc(Cl)cn1)[C@@]2(O[C@H]1CCOC1)c1ccc(Cl)cc1)C1CCNCC1 (single isomer, unassigned) [Example 448] | 84 |  | inhibition at 30 µM (SN40R2 cells; read-out: SN40R2 % inhibition at 30, Protocol B, SN40R2, at 30 μM): 48%
CCC(O)(c1cc(F)c2c(c1)C(=O)N(Cc1ncc(Cl)cn1)[C@@]2(O[C@H]1CCOC1)c1ccc(Cl)cc1)C1CCN(C)CC1 (single isomer, unassigned) [Example 449] | 78 | 19 | 
CCCC(O)(c1cc(F)c2c(c1)C(=O)N(Cc1ccc(C#N)cn1)[C@@]2(O[C@H]1CCOC1)c1ccc(Cl)cc1)c1cn(C)cn1 (single isomer, unassigned) [Example 472] |  | 10 | inhibition at 0.003 µM (MDM2-p53 interaction): 48%
CCC(O)(c1cc(F)c2c(c1)C(=O)N(Cc1ncc(Cl)cc1O)[C@@]2(O[C@H]1C[C@@H](O)C1)c1ccc(Cl)cc1)c1cn(C)cn1 (single isomer, unassigned) [Example 487] | 59 | 12 | 
CCC(O)(c1cc(F)c2c(c1)C(=O)N(Cc1ccc(C#N)cn1)[C@@]2(OC)c1ccc(Cl)cc1)[C@H]1CC[C@H](O)CC1 (single isomer, unassigned) [Example 521] | 77 | 11 | 
CCC(O)(c1cc(F)c2c(c1)C(=O)N(Cc1ncc(Cl)cn1)[C@@]2(O[C@H]1CCOC1)c1ccc(Cl)cc1)C1(F)CCNCC1 (single isomer, unassigned) [Example 541] |  |  | inhibition at 0.0003 µM (MDM2-p53 interaction; read-out: MDM2 % inhibition @0.00030): 64%; IC50 (SJSA-1 cells; [1]): 0.014 µM
CCC(O)(c1cc(F)c2c(c1)C(=O)N(Cc1ncc(Cl)cn1)[C@@]2(O[C@H]1C[C@@H](O)C1)c1ccc(Cl)cc1)C1(F)CCNCC1 (single isomer, unassigned) [Example 542] |  | -1 | inhibition at 0.01 µM (MDM2-p53 interaction; read-out: MDM2 % inhibition @0.010): 57%
CCC(O)(c1cc(F)c2c(c1)C(=O)N(Cc1ccc(C#N)cn1)[C@@]2(O[C@H]1CCOC1)c1ccc(Cl)cc1)C1(F)CCNCC1 (single isomer, unassigned) [Example 546] | 86 | 17 | 
CCC(O)(c1cc(F)c2c(c1)C(=O)N(Cc1ncc(C#N)cn1)[C@@]2(O[C@H]1CCOC1)c1ccc(Cl)cc1)C1(F)CCNCC1 (single isomer, unassigned) [Example 547] | 82 | 4 | 
CCC(O)(c1cc(F)c2c(c1)C(=O)N(Cc1ccc(Cl)cn1)[C@@]2(O[C@H]1CCOC1)c1ccc(Cl)cc1)C1(F)CCNCC1 (single isomer, unassigned) [Example 548] | 82 | 111 | 
CCC(O)(c1cc(F)c2c(c1)C(=O)N(Cc1ccc(Cl)cn1)[C@@]2(OC[C@@H](C)O)c1ccc(Cl)cc1)C1(F)CCNCC1 (single isomer, unassigned) [Example 549] | 85 | 33 | 
CN1CCC(C(C)(O)c2cc(F)c3c(c2)C(=O)N(Cc2ncc(Cl)cn2)[C@@]3(OCC2(F)COC2)c2ccc(Cl)cc2)CC1 (single isomer, unassigned) [Example 558] |  | 6 | inhibition at 0.003 µM (MDM2-p53 interaction): 53%
COc1ccc(CN2C(=O)c3cc(C(C)(O)c4cnn(C)c4)cc(F)c3[C@]2(OCC2(O)CC2)c2ccc(Cl)cc2)nc1 (stereo partly drawn) [Example 228, (3R)-3-(4-chlorophenyl)-4-fluoro-6-[1-hydroxy-1-(1-methyl-1H-pyrazol-4-yl)ethyl]-3-[(1-hydroxycyclopropyl)methoxy]-2-[(5-methoxypyridin-2-yl)methyl]-2,3-dihydro-1H-isoindol-1-one] |  |  | MDM2 % at stated concentration (MDM2-p53 interaction; at 0.010 μM): 61%@0.010; IC50 (SJSA-1 cells; [2]): 0.21 µM
COc1ccc(CN2C(=O)c3cc(C(C)(O)c4cnn(C)c4)cc(F)c3[C@]2(OCC2(O)CC2)c2ccc(Cl)cc2)nc1 (stereo partly drawn) [Example 347, (3R)-3-(4-chlorophenyl)-4-fluoro-6-[1-hydroxy-1-(1-methyl-1H-pyrazol-4-yl)ethyl]-3-[(1-hydroxycyclopropyl)methoxy]-2-[(5-methoxypyridin-2-yl)methyl]-2,3-dihydro-1H-isoindol-1-one] |  |  | MDM2 % at stated concentration (MDM2-p53 interaction; at 0.10 μM): 63%@0.10; IC50 (SJSA-1 cells; [2]): 1.7 µM
CCC(O)(c1cc(F)c2c(c1)C(=O)N(Cc1ncc(Cl)cn1)[C@@]2(OCC1(C(N)=O)CC1)c1ccc(Cl)cc1)c1cn(C)cn1 (stereo partly drawn) [Example 485, 1-({[(1R)-1-(4-chlorophenyl)-2-[(5-chloropyrimidin-2-yl)methyl]-7-fluoro-5-[1-hydroxy-1-(1-methyl-1H-imidazol-4-yl)propyl]-3-oxo-2,3-dihydro-1H-isoindol-1-yl]oxy}methyl)cyclopropane-1-carboxamide] |  |  | inhibition at 0.1 µM (MDM2-p53 interaction): 58%; IC50 (SJSA-1 cells; [1]): 4.2 µM
CCC(O)(c1cc(F)c2c(c1)C(=O)N(Cc1ccc(C#N)cn1)[C@@]2(OC[C@@H](C)O)c1ccc(Cl)cc1)C1(F)CCOCC1 (stereo partly drawn) [Example 498, 6-{[(1R)-1-(4-chlorophenyl)-7-fluoro-5-[1-(4-fluorooxan-4-yl)-1-hydroxypropyl]-1-[(2R)-2-hydroxypropoxy]-3-oxo-2,3-dihydro-1H-isoindol-2-yl]methyl}pyridine-3-carbonitrile] |  |  | inhibition at 0.1 µM (MDM2-p53 interaction): 32%; inhibition at 10 µM (SJSA-1 cells): 96%
CCC(O)(c1cc(F)c2c(c1)C(=O)N(Cc1ccc(C#N)cn1)[C@@]2(OCCO)c1ccc(Cl)cc1)C1(F)CCOCC1 (stereo partly drawn) [Example 500, 6-{[(1R)-1-(4-chlorophenyl)-7-fluoro-5-[1-(4-fluorooxan-4-yl)-1-hydroxypropyl]-1-(2-hydroxyethoxy)-3-oxo-2,3-dihydro-1H-isoindol-2-yl]methyl}pyridine-3-carbonitrile] |  |  | inhibition at 0.1 µM (MDM2-p53 interaction): 21%; inhibition at 10 µM (SJSA-1 cells): 16%
CCC(O)(c1cc(F)c2c(c1)C(=O)N(Cc1ccc(C#N)cn1)[C@@]2(OC1CC(O)C1)c1ccc(Cl)cc1)[C@H]1CC[C@H](O)CC1 (stereo partly drawn) [Example 520, 6-{[(1R)-1-(4-chlorophenyl)-7-fluoro-5-{1-hydroxy-1-[trans-4-hydroxycyclohexyl]propyl}-3-oxo-1-[cis-3-hydroxycyclobutoxy]-2,3-dihydro-1H-isoindol-2-yl]methyl}pyridine-3-carbonitrile] |  |  | inhibition at 0.03 µM (MDM2-p53 interaction): 32%; IC50 (SJSA-1 cells; [1]): 3.9 µM

More lines, main results first:

inhibition at 0.001 µM (MDM2-p53 interaction) [%] | Compound | inhibition at 10 µM (SN40R2 cells) [%] | also measured
68 | CCC(O)(c1cc(F)c2c(c1)C(=O)N(Cc1ncc(Cl)cn1)[C@@]2(OC[C@@H](C)O)c1ccc(Cl)cc1)C1(F)CCNCC1 (single isomer, unassigned) [Example 543] | -6 | 
86 | CCC(O)(c1cc(F)c2c(c1)C(=O)N(Cc1ncc(Cl)cn1)[C@@]2(OC)c1ccc(Cl)cc1)C1(F)CCNCC1 (single isomer, unassigned) [Example 544] | 109 | 
94 | CCC(O)(c1cc(F)c2c(c1)C(=O)N(Cc1ncc(Cl)cn1)[C@@]2(OCC1(C#N)CC1)c1ccc(Cl)cc1)C1(F)CCNCC1 (single isomer, unassigned) [Example 545] |  | inhibition at 3 µM (SN40R2 cells): 4%
79 | CCC(O)(c1cc(F)c2c(c1)C(=O)N(Cc1ncc(Cl)cn1)[C@@]2(OC)c1ccc(Cl)cc1)C1(F)CCN(C2COC2)CC1 (single isomer, unassigned) [Example 552] | 7 | 
47 | CCC(O)(c1cc(F)c2c(c1)C(=O)N(Cc1ncc(C#N)cn1)[C@@]2(O[C@H]1CCOC1)c1ccc(Cl)cc1)C1(F)CCN(C)CC1 (single isomer, unassigned) [Example 561] | 12 | 
76 | CCC(O)(c1cc(F)c2c(c1)C(=O)N(Cc1ncc(Cl)cn1)[C@@]2(OC)c1ccc(Cl)cc1)C1(F)CCN(C)CC1 (single isomer, unassigned) [Example 563] | 72 | 
86 | CCC(O)(c1cc(F)c2c(c1)C(=O)N(Cc1ncc(Cl)cn1)[C@@]2(OCC1(C#N)CC1)c1ccc(Cl)cc1)C1(F)CCN(C)CC1 (single isomer, unassigned) [Example 564] |  | inhibition at 3 µM (SN40R2 cells): 10%
65 | CCC(O)(c1cc(F)c2c(c1)C(=O)N(Cc1ncc(Cl)cn1)[C@@]2(OCCO)c1ccc(Cl)cc1)C1(F)CCN(C)CC1 (single isomer, unassigned) [Example 565] | 11 | 
83 | CCC(O)(c1cc(F)c2c(c1)C(=O)N(Cc1ncc(Cl)cn1)[C@@]2(O[C@H]1C[C@@H](O)C1)c1ccc(Cl)cc1)C1(F)CCN(C)CC1 (single isomer, unassigned) [Example 570] | 26 | 
77 | CCC(O)(c1cc(F)c2c(c1)C(=O)N(Cc1ncc(Cl)cn1)[C@@]2(O[C@H]1CCOC1)c1ccc(Cl)cc1)C1(F)CCN(C)CC1 (single isomer, unassigned) [Example 571] | 38 | 
45 | CCC(O)(c1cc(F)c2c(c1)C(=O)N(Cc1ncc(C#N)cn1)[C@@]2(OCC1(C#N)CC1)c1ccc(Cl)cc1)C1(F)CCN(C)CC1 (single isomer, unassigned) [Example 574] | 27 | 
